Laboratory results as given in US20240239759A1, “ISOXAZOLINE COMPOSITIONS AND THEIR USE AS ANTIPARASITICS” (Intervet Inc., priority 2007, published 2024).
Values joined by “and” are separate entries in the source; they are usually repeats but may differ in a detail not shown here. Equal entries are not always repeated.

Experiments:
[1] = system: brown dog ticks, R. sanguineus (nymphs); assay: Efficacy against hard (Ixodide) ticks on Guinea pigs (Example 2D); assay type: in vivo, Rhipicephalus sanguineus; settings: all treated groups of Study 1 (100 ppm dip, 10 mg/kg oral, 10 mg/kg subcutaneous) and Study 2 (25 ppm dip, 2.5 mg/kg oral, 2.5 mg/kg subcutaneous), Day 4 to Day 8
Method: (§1) Guinea pigs were divided into groups of three. Each group was subjected to one of the following treatments with either Compound 11-1, fipronil (positive control), or neither (negative control):
(§2) • 1. 100 ppm body weight topical administration by animal dip • 2. 10 mg/kg body weight oral administration • 3. 10 mg/kg body weight subcutaneous administration • 4. No treatment (negative control)
(§3) • 1. 25 ppm body weight topical administration by animal dip • 2. 2.5 mg/kg body weight oral administration • 3. 2.5 mg/kg body weight subcutaneous administration • 4. No treatment (negative control) One day before the treatment, all the Guinea pigs were infested with 100 vital juvenile (“nymph”) hard ticks (brown dog ticks, R. sanguineus). Engorged, detached nymphs were counted (eN) from Day 4 to Day 8 to calculate the efficacy of the treatments according to following formula: […]
In addition, collected ticks were assessed for molting into the next stage.

[2] = system: bed bugs (C. lectularius); assay: Efficacy against bed bugs on Guinea pigs (Example 2C); assay type: in vivo, Cimex lectularius; settings: Guinea pig
Method: (§4) Six Guinea pigs were treated orally, subcutaneously, or intraperitoneally with 10 mg/kg bodyweight of Compound 11-1 or fipronil (positive control). The Guinea pigs were locally co-infested with juvenile soft ticks (O. moubata) and bed bugs (C. lectularius) once before the treatment, and at different time points after treatment between days 2 and 50. Ten engorged ticks/bed bugs were collected to assess the percentage of killed individuals per species 24 hr after each infestation.
(§5) For Guinea pigs treated with Compound 11-1, the ticks and bed bugs died within 1 to 5 hr following infestation up to Day 29, and within 8 to 24 hr after day 29. For Guinea pigs treated with fipronil, ticks and bed bugs died within 1 to 7 hr after infestation up to Day 29, and within 8 to 24 hr after day 29.

[3] = Side effects in Guinea pigs, soft tick and bed bug study (Example 2C); assay type: in vivo; settings: Guinea pigs; oral, subcutaneous or intraperitoneal 10 mg/kg
Method: as §4

M. musculinus = assay: Efficacy against mites on mice (Example 2B); assay type: in vivo, Myocoptes musculinus; set-up: key: “+”=low infestation rate; “++”=medium infestation rate; “+++”=high infestation rate; settings: repeated 7 days later
Method: The mice were divided into groups of three, and treated topically with 100 ppm body weight, orally with 10 mg/kg body weight, or subcutaneously with 10 mg/kg body weight of Compound 11-1, fipronil (positive control), or nothing (negative control). This treatment was then repeated 7 days later. The infestation rate per mouse (“+”=low infestation rate, “++”=medium infestation rate, “+++”=high infestation rate) was assessed repeatedly on days 1, 6, 9, 13, and 23. Efficacy was defined as the inhibition of the mite infestation rate on treated mice relative to the negative control group.

[4] = system: cat fleas (Ctenocephalides felis); assay: Adult fleas fed on artificial membranes with spiked blood (Example 1); settings: 48 hr continuous feeding
Method: Adult fleas (20-30) were fed on artificial membranes with blood spiked with Compound 10-1, Compound 11-1, or a positive control (fipronil) at a concentration of 100, 10, or 1 ppm. Flea efficacy was assessed after 48 hr of continuous feeding by comparing the number of killed and damaged fleas with the number of fed fleas. Flea efficacy was 100% for Compound 10-1, Compound 11-1, and fipronil at 100, 10, and 1 ppm.

[5] = system: juvenile soft ticks (O. moubata); assay: Efficacy against soft (Argaside) ticks on Guinea pigs (Example 2C); assay type: in vivo, Ornithodoros moubata; settings: Guinea pig, up to Day 50
Method: as §4, §5

adult fleas (C. felis) = assay: Efficacy against fleas on mice (Example 2A); assay type: in vivo, Ctenocephalides felis
Method: (§6) Mice were divided into groups of three, and treated topically with 100 ppm body weight, orally with 10 mg/kg bodyweight, or subcutaneously with 10 mg/kg bodyweight of Compound 11-1, fipronil (positive control), or nothing (negative control). These mice were sedated and infested with adult fleas (C. felis) 1, 3, 6, and 24 hr after treatment. Fleas were recovered from the mice after approximately 30 minutes of feeding. The assessment of flea inhibition (% of dead and damaged fleas) was conducted 1 and 24 hr after each infestation.

[6] = Side effects in Guinea pigs, hard tick studies (Example 2D); assay type: in vivo; settings: guinea pig, in vivo
Method: as §1, §2, §3
In the first study, 32 engorged R. sanguineus nymphs were collected from animals of the untreated negative control group. And in the second study, 75 engorged R. sanguineus nymphs were collected from animals of the untreated negative control group. […] Thus, the inhibition of engorged nymphs for both Compound 11-1 and fipronil was 100%.

[7] = Side effects in mice, flea study (Example 2A); assay type: in vivo; settings: topical 100 ppm, oral or subcutaneous 10 mg/kg
Method: as §6

N#Cc1nn(-c2c(Cl)cc(C(F)(F)F)cc2Cl)c(N)c1[S+]([O-])C(F)(F)F (centres unmarked) [fipronil, reference compound]
Engorged R. sanguineus nymphs collected [1]: no nymphs were collected
Inhibition of engorged nymphs [1]: 100%
Efficacy against bed bugs (killed 24 hr after infestation) ([2]; intraperitoneal 10 mg/kg, up to Day 18): 100% efficacy was observed up to Day 18.
Efficacy against bed bugs (killed 24 hr after infestation) ([2]; oral 10 mg/kg, up to Day 18): 100% efficacy was observed up to Day 18.
Efficacy against bed bugs (killed 24 hr after infestation) ([2]; subcutaneous 10 mg/kg, on Day 37): up to Day 35. 50% efficacy was observed
Side effects [3]: No side effects were observed
Mite infestation rate per mouse (M. musculinus; oral 10 mg/kg, Day 1): +++
Mite infestation rate per mouse (M. musculinus; oral 10 mg/kg, Day 6): ++ to +++
Mite infestation rate per mouse (M. musculinus; oral 10 mg/kg, Day 9): ++ to +++
Mite infestation rate per mouse (M. musculinus; oral 10 mg/kg, Day 13): +
Mite infestation rate per mouse (M. musculinus; oral 10 mg/kg, Day 23): +
Mite infestation rate per mouse (M. musculinus; subcutaneous 10 mg/kg, Day 1): +++
Mite infestation rate per mouse (M. musculinus; subcutaneous 10 mg/kg, Day 6): 2 mice: + to ++ and 1 mouse: +++
Mite infestation rate per mouse (M. musculinus; subcutaneous 10 mg/kg, Day 9): 2 mice: + to ++ and 1 mouse: +++
Mite infestation rate per mouse (M. musculinus; subcutaneous 10 mg/kg, Day 13): +
Mite infestation rate per mouse (M. musculinus; subcutaneous 10 mg/kg, Day 23): + to ++
Mite infestation rate per mouse (M. musculinus; topical 100 ppm body weight, Day 1): 2 mice: + to ++ and 1 mouse: +++ (all
Mite infestation rate per mouse (M. musculinus; topical 100 ppm body weight, Day 6): + to ++
Mite infestation rate per mouse (M. musculinus; topical 100 ppm body weight, Day 9): 2 mice: none and 1 mouse: +
Mite infestation rate per mouse (M. musculinus; topical 100 ppm body weight, Day 13): none
Mite infestation rate per mouse (M. musculinus; topical 100 ppm body weight, Day 23): none
Flea efficacy ([4]; blood spiked at 1 ppm): 100%
Flea efficacy ([4]; blood spiked at 10 ppm): 100%
Flea efficacy ([4]; blood spiked at 100 ppm): 100%
Efficacy against soft ticks (killed 24 hr after infestation) ([5]; intraperitoneal 10 mg/kg): 100% efficacy was observed up to Day 50.
Efficacy against soft ticks (killed 24 hr after infestation) ([5]; oral 10 mg/kg): 100% efficacy was observed up to Day 50.
Efficacy against soft ticks (killed 24 hr after infestation) ([5]; subcutaneous 10 mg/kg): 100% efficacy was observed up to Day 50.
Flea inhibition (% of dead and damaged fleas) (adult fleas (C. felis); oral 10 mg/kg, infested 1 hr after treatment, assessed 1 hr after infestation): 0-2%
Flea inhibition (% of dead and damaged fleas) (adult fleas (C. felis); oral 10 mg/kg, infested 1 hr after treatment, assessed 24 hr after infestation): 3.3%
Flea inhibition (% of dead and damaged fleas) (adult fleas (C. felis); oral 10 mg/kg, infested 3 hr after treatment, assessed 1 hr after infestation): 0-2%
Flea inhibition (% of dead and damaged fleas) (adult fleas (C. felis); oral 10 mg/kg, infested 3 hr after treatment, assessed 24 hr after infestation): 12.3%
Flea inhibition (% of dead and damaged fleas) (adult fleas (C. felis); oral 10 mg/kg, infested 6 hr after treatment, assessed 1 hr after infestation): 0-2%
Flea inhibition (% of dead and damaged fleas) (adult fleas (C. felis); oral 10 mg/kg, infested 6 hr after treatment, assessed 24 hr after infestation): 6.7%
Flea inhibition (% of dead and damaged fleas) (adult fleas (C. felis); oral 10 mg/kg, infested 24 hr after treatment, assessed 1 hr after infestation): 0-2%
Flea inhibition (% of dead and damaged fleas) (adult fleas (C. felis); oral 10 mg/kg, infested 24 hr after treatment, assessed 24 hr after infestation): 7.7%
Flea inhibition (% of dead and damaged fleas) (adult fleas (C. felis); subcutaneous 10 mg/kg, infested 1 hr after treatment, assessed 1 hr after infestation): 0-2%
Flea inhibition (% of dead and damaged fleas) (adult fleas (C. felis); subcutaneous 10 mg/kg, infested 1 hr after treatment, assessed 24 hr after infestation): 1.0%
Flea inhibition (% of dead and damaged fleas) (adult fleas (C. felis); subcutaneous 10 mg/kg, infested 3 hr after treatment, assessed 1 hr after infestation): 0-2%
Flea inhibition (% of dead and damaged fleas) (adult fleas (C. felis); subcutaneous 10 mg/kg, infested 3 hr after treatment, assessed 24 hr after infestation): 15.7%
Flea inhibition (% of dead and damaged fleas) (adult fleas (C. felis); subcutaneous 10 mg/kg, infested 6 hr after treatment, assessed 1 hr after infestation): 0-2%
Flea inhibition (% of dead and damaged fleas) (adult fleas (C. felis); subcutaneous 10 mg/kg, infested 6 hr after treatment, assessed 24 hr after infestation): 97.7%
Flea inhibition (% of dead and damaged fleas) (adult fleas (C. felis); subcutaneous 10 mg/kg, infested 24 hr after treatment, assessed 1 hr after infestation): 0-2%
Flea inhibition (% of dead and damaged fleas) (adult fleas (C. felis); subcutaneous 10 mg/kg, infested 24 hr after treatment, assessed 24 hr after infestation): 94.3%
Flea inhibition (% of dead and damaged fleas) (adult fleas (C. felis); topical 100 ppm body weight, infested 1 hr after treatment, assessed 1 hr after infestation): 0-2%
Flea inhibition (% of dead and damaged fleas) (adult fleas (C. felis); topical 100 ppm body weight, infested 1 hr after treatment, assessed 24 hr after infestation): 100%
Flea inhibition (% of dead and damaged fleas) (adult fleas (C. felis); topical 100 ppm body weight, infested 3 hr after treatment, assessed 1 hr after infestation): 0-2%
Flea inhibition (% of dead and damaged fleas) (adult fleas (C. felis); topical 100 ppm body weight, infested 3 hr after treatment, assessed 24 hr after infestation): 94.3%
Flea inhibition (% of dead and damaged fleas) (adult fleas (C. felis); topical 100 ppm body weight, infested 6 hr after treatment, assessed 1 hr after infestation): 0-2%
Flea inhibition (% of dead and damaged fleas) (adult fleas (C. felis); topical 100 ppm body weight, infested 6 hr after treatment, assessed 24 hr after infestation): 100%
Flea inhibition (% of dead and damaged fleas) (adult fleas (C. felis); topical 100 ppm body weight, infested 24 hr after treatment, assessed 1 hr after infestation): 0-2%
Flea inhibition (% of dead and damaged fleas) (adult fleas (C. felis); topical 100 ppm body weight, infested 24 hr after treatment, assessed 24 hr after infestation): 76.7%
Side effects [6]: No side effects were observed
Side effects [7]: No side effects were observed
